Results reported in ChEMBL document CHEMBL5291721, “A preclinical secondary pharmacology resource illuminates target-adverse drug reaction associations of marketed drugs” (Nat Commun, 2023).

What was measured:
Progesterone receptor = molecular target: T1, Progesterone receptor (Homo sapiens, UniProt P06401)
T1 sequence (P06401 whole entry): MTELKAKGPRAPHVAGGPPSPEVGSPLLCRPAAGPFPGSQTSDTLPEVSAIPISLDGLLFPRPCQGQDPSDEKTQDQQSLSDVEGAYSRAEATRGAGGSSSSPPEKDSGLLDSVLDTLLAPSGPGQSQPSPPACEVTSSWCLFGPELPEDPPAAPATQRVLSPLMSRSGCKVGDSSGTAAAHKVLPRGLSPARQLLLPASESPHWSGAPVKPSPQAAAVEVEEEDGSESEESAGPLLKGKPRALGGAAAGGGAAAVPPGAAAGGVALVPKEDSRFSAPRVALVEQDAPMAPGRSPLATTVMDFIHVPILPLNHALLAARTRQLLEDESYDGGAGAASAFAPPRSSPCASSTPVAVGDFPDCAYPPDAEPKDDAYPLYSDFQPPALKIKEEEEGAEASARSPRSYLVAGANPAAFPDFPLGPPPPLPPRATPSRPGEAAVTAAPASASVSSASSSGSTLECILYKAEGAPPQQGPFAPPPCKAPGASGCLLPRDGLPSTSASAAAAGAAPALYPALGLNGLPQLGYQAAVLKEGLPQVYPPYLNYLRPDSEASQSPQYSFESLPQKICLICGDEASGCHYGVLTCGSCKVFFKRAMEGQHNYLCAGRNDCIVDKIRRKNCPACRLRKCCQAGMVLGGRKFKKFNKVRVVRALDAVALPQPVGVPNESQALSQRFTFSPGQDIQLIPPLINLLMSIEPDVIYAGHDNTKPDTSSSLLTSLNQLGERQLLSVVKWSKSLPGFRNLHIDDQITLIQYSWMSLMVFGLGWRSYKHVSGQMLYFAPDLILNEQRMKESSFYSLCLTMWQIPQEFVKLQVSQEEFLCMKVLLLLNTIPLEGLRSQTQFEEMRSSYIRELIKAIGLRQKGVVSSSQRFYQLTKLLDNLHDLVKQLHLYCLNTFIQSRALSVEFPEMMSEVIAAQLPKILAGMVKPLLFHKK

[1] = molecular target: T2, Cholecystokinin receptor type A (Homo sapiens, UniProt P32238)
T2 sequence (P32238 whole entry): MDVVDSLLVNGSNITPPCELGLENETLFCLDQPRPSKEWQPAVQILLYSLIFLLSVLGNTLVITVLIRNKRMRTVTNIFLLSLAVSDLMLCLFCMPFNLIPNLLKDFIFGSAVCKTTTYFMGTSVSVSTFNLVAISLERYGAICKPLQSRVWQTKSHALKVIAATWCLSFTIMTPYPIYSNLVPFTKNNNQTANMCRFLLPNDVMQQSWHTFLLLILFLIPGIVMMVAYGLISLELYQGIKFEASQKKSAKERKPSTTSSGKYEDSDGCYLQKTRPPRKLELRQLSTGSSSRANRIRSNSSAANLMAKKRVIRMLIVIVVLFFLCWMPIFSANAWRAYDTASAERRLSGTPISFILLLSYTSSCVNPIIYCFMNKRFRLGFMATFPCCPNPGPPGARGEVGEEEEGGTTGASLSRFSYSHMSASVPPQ

[2] = molecular target: T3, Amine oxidase [flavin-containing] A (Homo sapiens, UniProt P21397); format: functional
T3 sequence (P21397 whole entry): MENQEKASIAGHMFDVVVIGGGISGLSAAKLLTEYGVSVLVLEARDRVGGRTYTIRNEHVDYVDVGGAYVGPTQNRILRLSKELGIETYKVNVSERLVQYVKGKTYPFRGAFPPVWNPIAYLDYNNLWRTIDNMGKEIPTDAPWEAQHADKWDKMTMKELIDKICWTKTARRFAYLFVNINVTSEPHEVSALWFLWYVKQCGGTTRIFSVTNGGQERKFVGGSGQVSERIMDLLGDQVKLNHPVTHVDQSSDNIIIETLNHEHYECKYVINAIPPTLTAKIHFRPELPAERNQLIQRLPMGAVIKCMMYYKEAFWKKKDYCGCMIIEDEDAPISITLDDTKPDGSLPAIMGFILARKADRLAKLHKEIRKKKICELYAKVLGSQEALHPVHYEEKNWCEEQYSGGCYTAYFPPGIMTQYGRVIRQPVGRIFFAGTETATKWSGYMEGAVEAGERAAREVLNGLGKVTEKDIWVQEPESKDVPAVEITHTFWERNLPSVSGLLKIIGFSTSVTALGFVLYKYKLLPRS

[3] = molecular target: Beta-2 adrenergic receptor (Homo sapiens, UniProt P07550); format: functional, cell-based
D(3) dopamine receptor = D(3) dopamine receptor (Homo sapiens, UniProt P35462)
D(1A) dopamine receptor = D(1A) dopamine receptor (Homo sapiens, UniProt P21728); format: functional, cell-based
[4] = molecular target: Delta-type opioid receptor (Homo sapiens, UniProt P41143)
[5] = molecular target: Voltage-gated inwardly rectifying potassium channel KCNH2 (Homo sapiens, UniProt Q12809); format: functional; details: read-out: AC50
[6] = molecular target: T4, 5-hydroxytryptamine receptor 2C (Homo sapiens, UniProt P28335)
T4 sequence (P28335 whole entry): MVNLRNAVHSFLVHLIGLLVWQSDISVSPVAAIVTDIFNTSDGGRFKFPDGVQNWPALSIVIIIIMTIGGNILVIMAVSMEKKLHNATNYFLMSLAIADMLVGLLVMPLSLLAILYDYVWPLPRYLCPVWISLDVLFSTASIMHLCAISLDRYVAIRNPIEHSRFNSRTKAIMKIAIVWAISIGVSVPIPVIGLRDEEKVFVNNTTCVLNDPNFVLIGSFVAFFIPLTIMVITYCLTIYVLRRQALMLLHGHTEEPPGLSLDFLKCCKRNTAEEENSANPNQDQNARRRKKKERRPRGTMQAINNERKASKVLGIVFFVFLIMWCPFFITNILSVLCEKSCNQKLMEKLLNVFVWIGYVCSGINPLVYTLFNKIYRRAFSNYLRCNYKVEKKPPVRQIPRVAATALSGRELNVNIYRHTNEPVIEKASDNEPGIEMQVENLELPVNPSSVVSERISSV

[7] = molecular target: Beta-1 adrenergic receptor (Homo sapiens, UniProt P08588); format: functional
Note: assay procedure not described here.

Sequence of Beta-2 adrenergic receptor (P07550 whole entry): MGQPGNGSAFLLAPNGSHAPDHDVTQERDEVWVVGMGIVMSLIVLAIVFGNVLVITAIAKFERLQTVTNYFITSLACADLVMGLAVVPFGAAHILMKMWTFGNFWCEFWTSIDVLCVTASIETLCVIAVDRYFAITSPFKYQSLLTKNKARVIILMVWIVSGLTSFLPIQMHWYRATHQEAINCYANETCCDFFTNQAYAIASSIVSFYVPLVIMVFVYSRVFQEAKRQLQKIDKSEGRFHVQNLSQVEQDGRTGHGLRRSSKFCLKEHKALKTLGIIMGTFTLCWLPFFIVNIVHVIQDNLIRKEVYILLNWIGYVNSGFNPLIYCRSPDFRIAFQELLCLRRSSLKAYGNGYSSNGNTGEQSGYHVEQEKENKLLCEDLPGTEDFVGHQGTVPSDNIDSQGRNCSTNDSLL
Sequence of Delta-type opioid receptor (P41143 whole entry): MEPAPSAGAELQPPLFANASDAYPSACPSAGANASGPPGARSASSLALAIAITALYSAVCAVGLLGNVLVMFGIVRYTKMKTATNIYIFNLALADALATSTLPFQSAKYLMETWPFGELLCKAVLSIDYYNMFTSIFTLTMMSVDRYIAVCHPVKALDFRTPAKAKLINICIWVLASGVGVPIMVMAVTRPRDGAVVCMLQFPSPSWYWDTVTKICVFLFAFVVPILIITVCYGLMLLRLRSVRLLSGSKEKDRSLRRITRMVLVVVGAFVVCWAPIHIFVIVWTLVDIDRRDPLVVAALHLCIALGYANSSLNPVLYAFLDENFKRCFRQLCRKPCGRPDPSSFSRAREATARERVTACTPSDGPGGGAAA
Sequence of Voltage-gated inwardly rectifying potassium channel KCNH2 (Q12809 whole entry): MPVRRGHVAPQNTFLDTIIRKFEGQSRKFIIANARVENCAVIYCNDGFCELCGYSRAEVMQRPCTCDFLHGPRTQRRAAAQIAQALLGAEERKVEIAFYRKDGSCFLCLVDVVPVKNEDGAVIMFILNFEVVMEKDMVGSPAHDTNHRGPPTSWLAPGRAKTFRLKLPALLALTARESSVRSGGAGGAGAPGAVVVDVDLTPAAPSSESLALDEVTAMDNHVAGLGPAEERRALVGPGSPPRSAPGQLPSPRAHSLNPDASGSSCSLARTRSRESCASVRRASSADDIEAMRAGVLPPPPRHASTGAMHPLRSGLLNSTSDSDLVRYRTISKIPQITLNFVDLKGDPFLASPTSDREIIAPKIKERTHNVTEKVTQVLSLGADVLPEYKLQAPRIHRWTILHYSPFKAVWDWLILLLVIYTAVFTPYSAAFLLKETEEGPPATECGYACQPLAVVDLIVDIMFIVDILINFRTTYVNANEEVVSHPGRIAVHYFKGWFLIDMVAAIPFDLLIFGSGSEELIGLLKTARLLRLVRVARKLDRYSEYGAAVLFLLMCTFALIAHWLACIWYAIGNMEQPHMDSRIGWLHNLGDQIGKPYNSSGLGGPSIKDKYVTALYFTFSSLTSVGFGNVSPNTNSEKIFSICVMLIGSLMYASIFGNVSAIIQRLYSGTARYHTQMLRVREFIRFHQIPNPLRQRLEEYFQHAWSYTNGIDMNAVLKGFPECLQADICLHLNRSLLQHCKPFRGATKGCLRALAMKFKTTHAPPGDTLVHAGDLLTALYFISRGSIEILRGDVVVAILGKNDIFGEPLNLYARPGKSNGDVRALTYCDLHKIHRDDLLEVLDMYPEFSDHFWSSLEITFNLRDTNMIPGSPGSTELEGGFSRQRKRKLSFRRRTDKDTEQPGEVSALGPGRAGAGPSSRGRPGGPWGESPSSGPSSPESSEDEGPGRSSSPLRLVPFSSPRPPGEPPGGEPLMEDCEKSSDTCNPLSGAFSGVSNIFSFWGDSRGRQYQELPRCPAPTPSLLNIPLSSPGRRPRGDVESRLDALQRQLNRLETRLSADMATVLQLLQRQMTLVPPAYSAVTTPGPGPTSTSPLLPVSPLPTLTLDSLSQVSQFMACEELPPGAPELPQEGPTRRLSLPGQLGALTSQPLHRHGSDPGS
Sequence of D(1A) dopamine receptor (P21728 whole entry): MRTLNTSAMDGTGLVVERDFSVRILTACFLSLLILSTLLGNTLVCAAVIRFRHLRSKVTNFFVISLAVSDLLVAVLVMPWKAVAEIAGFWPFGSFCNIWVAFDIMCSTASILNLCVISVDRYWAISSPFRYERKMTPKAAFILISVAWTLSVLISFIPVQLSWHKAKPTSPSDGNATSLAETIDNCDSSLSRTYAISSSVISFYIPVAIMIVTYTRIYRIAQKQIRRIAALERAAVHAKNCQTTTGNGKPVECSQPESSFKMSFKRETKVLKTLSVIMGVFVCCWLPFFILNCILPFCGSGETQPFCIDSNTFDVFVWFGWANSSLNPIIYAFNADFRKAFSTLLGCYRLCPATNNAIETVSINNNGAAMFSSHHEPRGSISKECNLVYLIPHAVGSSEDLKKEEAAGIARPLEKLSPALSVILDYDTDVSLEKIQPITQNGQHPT
Sequence of Beta-1 adrenergic receptor (P08588 whole entry): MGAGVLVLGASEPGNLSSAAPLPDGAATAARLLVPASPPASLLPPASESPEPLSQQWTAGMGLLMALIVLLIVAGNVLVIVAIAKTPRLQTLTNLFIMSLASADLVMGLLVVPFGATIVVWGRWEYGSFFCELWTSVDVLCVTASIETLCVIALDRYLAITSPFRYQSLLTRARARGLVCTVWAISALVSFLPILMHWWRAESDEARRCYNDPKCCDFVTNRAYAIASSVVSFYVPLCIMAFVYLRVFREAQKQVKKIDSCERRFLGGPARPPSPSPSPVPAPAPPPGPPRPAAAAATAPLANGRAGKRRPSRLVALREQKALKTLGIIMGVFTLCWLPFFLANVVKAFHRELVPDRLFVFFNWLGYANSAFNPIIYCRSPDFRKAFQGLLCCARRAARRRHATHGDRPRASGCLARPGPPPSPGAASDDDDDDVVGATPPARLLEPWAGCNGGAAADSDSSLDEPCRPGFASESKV
Sequence of D(3) dopamine receptor (P35462 whole entry): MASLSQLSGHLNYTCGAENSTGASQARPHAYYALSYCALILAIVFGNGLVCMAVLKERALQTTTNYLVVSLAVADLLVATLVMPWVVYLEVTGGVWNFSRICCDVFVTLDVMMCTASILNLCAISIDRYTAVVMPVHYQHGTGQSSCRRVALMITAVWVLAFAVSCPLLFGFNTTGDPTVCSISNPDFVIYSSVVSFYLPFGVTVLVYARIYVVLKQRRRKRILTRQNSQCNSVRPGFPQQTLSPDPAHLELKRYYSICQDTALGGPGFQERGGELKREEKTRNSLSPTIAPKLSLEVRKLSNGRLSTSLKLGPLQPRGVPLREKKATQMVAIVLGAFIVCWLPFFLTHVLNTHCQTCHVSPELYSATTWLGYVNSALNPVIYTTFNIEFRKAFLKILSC

Structure (SMILES)	AC50 (Progesterone receptor) [µM]	AC50 [1] [µM]	AC50 [2] [µM]	AC50 [3] [µM]	AC50 (D(3) dopamine receptor) [µM]	AC50 (D(1A) dopamine receptor) [µM]	AC50 [4] [µM]	AC50 [5] [µM]	AC50 [6] [µM]	AC50 [7] [µM]
CCOC(=O)[C@H](CCc1ccccc1)N[C@@H](C)C(=O)N1Cc2ccccc2C[C@H]1C(=O)O	> 30	> 30	> 10	> 30	> 30	> 10	> 10	> 30	> 10	> 10
CC(=O)Oc1ccccc1C(=O)O [ASPIRIN]	> 30	> 30	> 30	> 30	> 30	> 10	> 30	> 30	> 30	> 10
O=C(Cc1cccs1)N[C@@H]1C(=O)N2C(C(=O)[O-])=C(C[n+]3ccccc3)CS[C@H]12 [CEPHALORIDINE]	> 30	–	> 30	> 30	> 30	> 30	> 30	> 30	> 30	–
C[C@H](CCC(=O)O)[C@H]1CC[C@H]2[C@@H]3[C@H](O)C[C@@H]4C[C@H](O)CC[C@]4(C)[C@H]3CC[C@]12C [CHENODIOL]	–	> 30	> 30	> 30	–	> 30	> 30	> 30	> 30	> 30
CN(C)CCCC1(c2ccc(F)cc2)OCc2cc(C#N)ccc21 (centres undefined) [CITALOPRAM]	> 30	> 30	> 10	> 30	–	–	> 30	–	–	> 10
O=C(O)[C@H]1/C(=C/CO)O[C@@H]2CC(=O)N21 [CLAVULANIC ACID]	–	> 30	> 30	> 30	–	> 30	> 30	> 30	> 30	> 30
CC(C)/N=c1\cc2n(-c3ccc(Cl)cc3)c3ccccc3nc-2cc1Nc1ccc(Cl)cc1 [CLOFAZIMINE]	–	> 30	> 30	> 30	–	> 30	26	0.958	> 30	> 30
C[C@H](Nc1ncnc2[nH]cnc12)c1cc2cccc(Cl)c2c(=O)n1-c1ccccc1 [DUVELISIB]	> 30	> 30	> 30	> 30	> 30	> 30	> 30	–	> 30	> 30
C[C@]12CCC(=O)C=C1CC[C@H]1[C@@H]3CC[C@](O)(C(=O)CO)[C@@]3(C)C[C@H](O)[C@@]12F [FLUDROCORTISONE]	–	> 30	> 10	> 30	–	> 10	> 30	> 30	> 30	> 10
CCOC(=O)Nc1ccc(NCc2ccc(F)cc2)nc1N [FLUPIRTINE]	–	> 30	> 30	> 30	–	> 30	> 30	27	> 10	> 30
NCC1(CC(=O)O)CCCCC1 [GABAPENTIN]	> 30	> 30	> 30	> 30	> 30	> 30	> 30	> 30	> 30	> 30
C[C@@H](O)[C@H]1C(=O)N2C(C(=O)O)=C(SCCN=CN)C[C@H]12 [IMIPENEM ANHYDROUS]	–	> 300	> 300	> 300	–	> 300	> 300	> 30	> 300	> 300
N[C@@H](Cc1cc(I)c(Oc2cc(I)c(O)c(I)c2)c(I)c1)C(=O)O [LEVOTHYROXINE]	–	> 30	> 30	> 30	–	> 30	> 30	> 30	> 30	> 30
O=C1[C@@H]2[C@H]3CC[C@H](C3)[C@@H]2C(=O)N1C[C@@H]1CCCC[C@H]1CN1CCN(c2nsc3ccccc23)CC1 [LURASIDONE]	> 30	–	> 30	> 30	0.0042	–	> 30	–	25	–
CS(=O)(=O)Nc1ccc([N+](=O)[O-])cc1Oc1ccccc1 [NIMESULIDE]	> 30	6.2	> 30	> 30	> 30	> 30	> 30	> 30	26	> 30
C#CCN(C)Cc1ccccc1 [PARGYLINE]	> 30	–	–	> 30	> 30	> 30	> 30	> 30	> 30	–
COc1cc2c(cc1OC)C1CC(=O)C(CC(C)C)CN1CC2 (centres undefined) [TETRABENAZINE]	–	> 30	> 30	> 30	–	> 30	> 30	> 30	> 30	> 30
CC(C)(CO)c1cc2cc(NC(=O)C3(c4ccc5c(c4)OC(F)(F)O5)CC3)c(F)cc2n1C[C@@H](O)CO [TEZACAFTOR]	–	> 30	> 30	> 30	–	> 30	> 30	> 30	> 30	> 30
c1cnc2cc3c(cc2n1)[C@@H]1CNC[C@H]3C1 [VARENICLINE]	–	> 30	> 30	> 30	–	> 30	> 30	> 30	> 30	> 30
Nc1c2c(nc3ccccc13)CCCC2O (centres undefined) [VELNACRINE]	–	> 30	> 30	> 30	–	> 30	> 30	25	> 30	> 30
